Data reported in patent US9199927B2, “Guanidinobenzoic acid compound” (Astellas Pharma Inc., priority 2011, dated 2015).
Counter-ions that a name gives are not always drawn. Like-named read-outs stand apart in the source and are kept apart here.

Tests used:
[1] = target: mouse trypsin (m-trypsin); experiment: Inhibitory activity of trypsin enzyme (mouse trypsin purified from small intestine contents, BZiPAR fluorescent substrate); assay type: biochemical; settings: mouse trypsin diluted 1/50, BZiPAR substrate, 30 minutes at room temperature
Source text: (§1) 1. Inhibitory Activity of Trypsin Enzyme in Humans and Mice
(§2) In the experiment, human recombinant trypsin (r-h trypsin; manufactured by WAKO, cat. #206-17171) and mouse trypsin (m-trypsin; purified from the mouse small intestine contents by the present Company) were used.
The method to extract the trypsin from the mouse small intestine is shown below.
The small intestine contents and the gastrointestinal tract of 10 mice were suspended in PBS using Polytron and subjected to centrifugation at 15,000×g several times. The supernatant was mixed at 4° C. for 16 hours with a Benzamidine Sepharose 4 Fast Flow Resin (GE Healthcare: #17-5123-10). After washing the resin with PBS, m-trypsin was eluted with a glycine elution buffer (pH 3.0).
(§3) The outline of the measurement method is shown below.
(§4) The compound was dissolved in dimethyl sulfoxide (DMSO), and diluted to an arbitrary concentration (A). A was 100-fold diluted with a buffer (0.1 M Tris (pH 8.0), 0.15 M NaCl, 10 mM CaCl2, 0.05% Brij38) (B). The r-h trypsin was diluted with a buffer to 0.088 μg/mL, and the m-trypsin was diluted with a buffer to 1/50 (C). […] The substrate solution of a substrate for the enzyme reaction, BZiPAR, (Rhodamine Reference Substrate) was diluted with a buffer to 5 μmol/L (D). B; 5 μL, C; 5 μL, and D; 10 μL were added to a 384-plate, and incubated at room temperature for 30 minutes. The fluorescent signals were detected with Ex/Em=497/520 using Tecan Safire Fluorometer. […] Based on the obtained inhibitory rates, IC50 values (nM) were calculated from the non-linear regression. The test was carried out in the same manner, using camostat as a control compound.
(§5) Ex in the table represents the Example No. as denoted below.

[2] = target: human recombinant trypsin (r-h trypsin) (Homo sapiens (Human), UniProt P07477); experiment: Inhibitory activity of trypsin enzyme (human recombinant trypsin, BZiPAR fluorescent substrate); assay type: biochemical; settings: human recombinant trypsin 0.088 μg/mL, 30 minutes at room temperature
Description: as §1, §2, §3, §4, §5

ICR mice = experiment: Increasing study of fecal protein concentration in mice; assay type: in vivo; settings: Mus musculus, 5 mg/kg oral, feces collected 3 to 9 hours after, control = 1, read-out: protein increasing activity in feces, fold vs control
Description: 2. Increasing Study of Fecal Protein Concentration in Mice
For the experiment, 6-weeks old ICR mice (male) were used, and the experiment was carried out in five per group. After fasting the mice for 15 hours, the control group was forcibly orally administered with a 0.5% methyl cellulose (MC) solution, and the test drug group was forcibly orally administered (5 mg/kg) with a solution or suspension obtained by dissolving or suspending the compound in the 0.5% MC solution. The fasting was stopped immediately thereafter, free feeding (CE-2) started and then the feces were collected from after 3 hours to after 9 hours. All of the obtained feces were dissolved and suspended in 6 mL of distilled water, and centrifuged for 10 minutes at 3000 rpm. The protein concentration in the supernatant was measured by a Bradford method, and the amount of the protein in 1 g of feces was calculated by dividing the protein concentration in the feces by the total weight of feces. Further, the efficacy was investigated from the ratio to the control. For the compounds that were evaluated multiple times, the average values were calculated.
For some representative compounds, the protein increasing activities in feces are shown in Table 2, assuming a value for the control as 1. Ex in the table represents the Example No. as denoted below of the test compound.

N=C(N)Nc1ccc(C(=O)Oc2ccc(CC(=O)N[C@@H](Cc3ccc(O)cc3)C(=O)O)c(Cl)c2)cc1 [Example 1, N-({4-[(4-carbamimidamidobenzoyl)oxy]-2-chlorophenyl}acetyl)-L-tyrosine hydrochloride]
IC50 [1]: 0.19 nM
IC50 [2]: 0.17 nM

N=C(N)Nc1ccc(C(=O)Oc2ccc(CC(=O)N[C@@H](Cc3c[nH]cn3)C(=O)O)c(Cl)c2)cc1 [Example 2, N-({4-[(4-carbamimidamidobenzoyl)oxy]-2-chlorophenyl}acetyl)-L-histidine 2 hydrochloride]
IC50 [1]: 0.49 nM
IC50 [2]: 0.92 nM

N=C(N)Nc1ccc(C(=O)Oc2ccc(CCC(=O)Nc3ccc(CC(=O)O)cc3)c(Cl)c2)cc1 [Example 11]
IC50 [1]: 0.45 nM
IC50 [2]: 0.76 nM

N=C(N)Nc1ccc(C(=O)Oc2ccc(CC(=O)N[C@@H](Cc3ccc(C(=O)O)cc3)C(=O)O)c(Cl)c2)cc1 [Example 13]
response vs control in vivo at 5 mg/kg (ICR mice): 185%
IC50 [1]: 0.84 nM
IC50 [2]: 0.91 nM

N=C(N)Nc1ccc(C(=O)Oc2ccc(CC(=O)N[C@@H](Cc3ccc(Cl)cc3)C(=O)O)c(Cl)c2)cc1 [Example 15]
response vs control in vivo at 5 mg/kg (ICR mice; po, 9 h): 167%

COc1ccc(C[C@H](NC(=O)Cc2ccc(OC(=O)c3ccc(NC(=N)N)cc3)cc2Cl)C(=O)O)cc1 [Example 16]
response vs control in vivo at 5 mg/kg (ICR mice; po, 9 h): 170%

N=C(N)Nc1ccc(C(=O)Oc2ccc(CC(=O)N[C@@H](Cc3ccccc3)C(=O)O)c(-c3ccccc3)c2)cc1 [Example 17]
IC50 [1]: 0.27 nM
IC50 [2]: 0.43 nM

N=C(N)Nc1ccc(C(=O)Oc2ccc3nc(C(=O)Nc4ccc(CC(=O)O)cc4)ccc3c2)cc1 [Example 22]
IC50 [1]: 0.2 nM
IC50 [2]: 0.29 nM

N=C(N)Nc1ccc(C(=O)Oc2cc(F)c(CC(=O)N[C@@H](Cc3ccccc3)C(=O)O)c(F)c2)cc1 [Example 24]
IC50 [1]: 0.17 nM
IC50 [2]: 0.21 nM

N=C(N)Nc1ccc(C(=O)Oc2ccc(CC(=O)N[C@@H](Cc3ccccc3)C(=O)O)c(C(F)(F)F)c2)cc1 [Example 25]
IC50 [1]: 0.25 nM
IC50 [2]: 0.29 nM

N=C(N)Nc1ccc(C(=O)Oc2ccc(CC(=O)N[C@@H](Cc3ccccc3)C(=O)O)c(Cl)c2Cl)cc1 [Example 26]
IC50 [1]: 0.18 nM
IC50 [2]: 0.29 nM

N=C(N)Nc1ccc(C(=O)Oc2cc(Cl)c(CC(=O)N[C@@H](Cc3ccccc3)C(=O)O)c(Cl)c2)cc1 [Example 27]
IC50 [1]: 0.19 nM
IC50 [2]: 0.26 nM

N=C(N)Nc1ccc(C(=O)Oc2ccc(CC(=O)N[C@@H](Cc3ccccc3F)C(=O)O)c(Cl)c2)cc1 [Example 29]
IC50 [1]: 0.21 nM
IC50 [2]: 0.31 nM

N=C(N)Nc1ccc(C(=O)Oc2ccc(CC(=O)N[C@@H](Cc3cccc(F)c3)C(=O)O)c(Cl)c2)cc1 [Example 30]
IC50 [1]: 0.19 nM
IC50 [2]: 0.26 nM

N=C(N)Nc1ccc(C(=O)Oc2ccc(CC(=O)N[C@@H](Cc3ccc(C(F)(F)F)cc3)C(=O)O)c(Cl)c2)cc1 [Example 31]
IC50 [1]: 0.34 nM
IC50 [2]: 0.31 nM

CN(C(=O)Cc1ccc(OC(=O)c2ccc(NC(=N)N)cc2)cc1Cl)[C@@H](Cc1ccccc1)C(=O)O [Example 33]
IC50 [1]: 0.6 nM
IC50 [2]: 0.88 nM

N=C(N)Nc1ccc(C(=O)Oc2ccc(CC(=O)N[C@@H](Cc3ccccc3)C(=O)O)c(C3CC3)c2)cc1 [Example 34]
IC50 [1]: 0.24 nM
IC50 [2]: 0.36 nM

N=C(N)Nc1ccc(C(=O)Oc2ccc(CC(=O)N(CCc3ccccc3)CC(=O)O)c(Cl)c2)cc1 [Example 35]
IC50 [1]: 0.28 nM
IC50 [2]: 0.44 nM

N=C(N)Nc1ccc(C(=O)Oc2ccc(CCC(=O)N(CC(=O)O)Cc3cccc(C(=O)O)c3)c(Cl)c2)cc1 [Example 36]
response vs control in vivo at 5 mg/kg (ICR mice): 192%
IC50 [1]: 0.38 nM
IC50 [2]: 0.43 nM

N=C(N)Nc1ccc(C(=O)Oc2ccc(CCCCC(=O)N[C@@H](Cc3ccccc3)C(=O)O)c(Cl)c2)cc1 [Example 37]
IC50 [1]: 0.34 nM
IC50 [2]: 0.38 nM

N=C(N)Nc1ccc(C(=O)Oc2ccc(CC(=O)N(CC(=O)O)[C@@H](Cc3ccccc3)C(=O)O)c(Cl)c2)cc1 [Example 40]
IC50 [1]: 0.45 nM
IC50 [2]: 0.5 nM

N=C(N)Nc1ccc(C(=O)Oc2ccc(CCC(=O)N(CC(=O)O)c3cccc(CC(=O)O)c3)c(Cl)c2)cc1 [Example 41]
response vs control in vivo at 5 mg/kg (ICR mice; po, 9 h): 177%

N=C(N)Nc1ccc(C(=O)Oc2ccc(CCC(=O)N(CCC(=O)O)Cc3cccc(C(=O)O)c3)c(Cl)c2)cc1 [Example 45]
response vs control in vivo at 5 mg/kg (ICR mice): 165%
IC50 [1]: 0.66 nM
IC50 [2]: 0.57 nM

N=C(N)Nc1ccc(C(=O)Oc2ccc(CCCC(=O)N(CC(=O)O)Cc3cccc(C(=O)O)c3)c(Cl)c2)cc1 [Example 51]
IC50 [1]: 0.47 nM
IC50 [2]: 0.46 nM

N=C(N)Nc1ccc(C(=O)Oc2ccc(CCC(=O)NCc3ccccc3C(=O)O)c(Cl)c2)cc1 [Example 52]
response vs control in vivo at 5 mg/kg (ICR mice): 182%
IC50 [1]: 0.39 nM
IC50 [2]: 0.3 nM

N=C(N)Nc1ccc(C(=O)Oc2ccc(CCC(=O)N(CC(=O)O)Cc3ccccc3C(=O)O)c(Cl)c2)cc1 [Example 53]
response vs control in vivo at 5 mg/kg (ICR mice): 179%
IC50 [1]: 0.35 nM
IC50 [2]: 0.45 nM

N=C(N)Nc1ccc(C(=O)Oc2ccc(CC(=O)N(CCC(=O)O)[C@@H](Cc3ccccc3)C(=O)O)c(Cl)c2)cc1 [Example 54]
IC50 [1]: 0.38 nM
IC50 [2]: 0.42 nM

N=C(N)Nc1ccc(C(=O)Oc2ccc(CC(=O)N[C@@H](Cc3ccc(OCC(=O)O)cc3)C(=O)O)c(Cl)c2)cc1 [Example 56]
response vs control in vivo at 5 mg/kg (ICR mice): 202%
IC50 [1]: 0.64 nM
IC50 [2]: 0.88 nM

N=C(N)Nc1ccc(C(=O)Oc2ccc(CCC(=O)N(CCc3cccc(C(=O)O)c3)CC(=O)O)c(Cl)c2)cc1 [Example 58]
response vs control in vivo at 5 mg/kg (ICR mice): 179%
IC50 [1]: 0.68 nM
IC50 [2]: 0.73 nM

N=C(N)Nc1ccc(C(=O)Oc2ccc(CCC(=O)N(CC(=O)O)Cc3ccccc3)c(Cl)c2)cc1 [Example 62]
IC50 [1]: 0.17 nM
IC50 [2]: 0.29 nM

N=C(N)Nc1ccc(C(=O)Oc2ccc(CCC(=O)N(CC(=O)O)Cc3csc(C(=O)O)c3)c(Cl)c2)cc1 [Example 63]
response vs control in vivo at 5 mg/kg (ICR mice; po, 9 h): 184%

N=C(N)Nc1ccc(C(=O)Oc2ccc(CCN(CC(=O)O)Cc3cccc(C(=O)O)c3)c(Cl)c2)cc1 [Example 65]
IC50 [1]: 0.45 nM
IC50 [2]: 0.4 nM

N=C(N)Nc1ccc(C(=O)Oc2ccc(CCN(CC(=O)O)C(=O)Cc3cccc(C(=O)O)c3)c(Cl)c2)cc1 [Example 66]
IC50 [1]: 0.45 nM
IC50 [2]: 0.35 nM

N=C(N)Nc1ccc(C(=O)Oc2ccc3nc(C(=O)N[C@@H](Cc4ccc(OCC(=O)O)cc4)C(=O)O)ccc3c2)cc1 [Example 71]
IC50 [1]: 0.23 nM
IC50 [2]: 0.18 nM

N=C(N)Nc1ccc(C(=O)Oc2ccc(CCC(=O)N(Cc3cccc(C(=O)O)c3)Cc3cccc(C(=O)O)c3)c(Cl)c2)cc1 [Example 93]
IC50 [1]: 0.56 nM
IC50 [2]: 0.4 nM

CN(C(=O)CN(CC(=O)O)Cc1cccc(C(=O)O)c1)c1ccc(OC(=O)c2ccc(NC(=N)N)cc2)cc1Cl [Example 94]
IC50 [1]: 0.39 nM
IC50 [2]: 0.42 nM

N=C(N)Nc1ccc(C(=O)Oc2ccc3nc(C(=O)N(CC(=O)O)Cc4ccc(CC(=O)O)cc4)ccc3c2)cc1 [Example 113]
response vs control in vivo at 5 mg/kg (ICR mice; po, 9 h): 193%

N=C(N)Nc1ccc(C(=O)Oc2ccc3cc(C(=O)N[C@@H](Cc4ccccc4)C(=O)O)[nH]c3c2)cc1 [Example 119]
response vs control in vivo at 5 mg/kg (ICR mice; po, 9 h): 139%

N=C(N)Nc1ccc(C(=O)Oc2ccc(CCC(=O)NC(Cc3ccccc3)C(=O)O)c(Cl)c2)cc1 (stereo not shown) [Example 131]
IC50 [1]: 0.4 nM
IC50 [2]: 0.51 nM
